Drawing on PubChem BioAssay AID256 (DTP/NCI, 2004), this text covers T/C for 20 molecules.

“And” between values parts separate entries of the source, which are not always exact repeats. Identical values can stand only once. Inconclusive results and toxic doses are left out.

This assay has as its system CD2F1 mice, L1210 leukemia ip, survival T/C. Kind of assay: NCI In Vivo Anticancer Drug Screen. Data for tumor model L1210 Leukemia (intraperitoneal) in CD2F1 (CDF1) mice. As to conditions: higher = longer survival. An outline of the steps: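 Vehicle-treated tumor-bearing mice served as controls (C) for compound-treated mice (T). Reported figure is T divided by C.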
The mark [1] stands for this setting: endpoint: mean survival time, dose: 100.0 mg/kg/injection, schedule: Q01DX009 (ip), vehicle: saline with Tween-80.
The mark [2] stands for this setting: endpoint: mean survival time, dose: 100.0 mg/kg/injection, schedule: Q04DX003 (ip), vehicle: saline with Tween-80.
Setting [3] is: endpoint: mean survival time, dose: 200.0 mg/kg/injection, schedule: Q01DX009 (ip), vehicle: saline with Tween-80.
[4] abbreviates: endpoint: mean survival time, dose: 200.0 mg/kg/injection, schedule: Q04DX003 (ip), vehicle: saline with Tween-80.
The mark [5] stands for this setting: endpoint: mean survival time, dose: 400.0 mg/kg/injection, schedule: Q01DX009 (ip), vehicle: saline with Tween-80.
Where [6] appears, read: endpoint: mean survival time, dose: 100.0 mg/kg/injection, schedule: Q01DX001 (ip), vehicle: saline with Tween-80.
Where [7] appears, read: endpoint: mean survival time, dose: 200.0 mg/kg/injection, schedule: Q01DX001 (ip), vehicle: saline with Tween-80.
Setting [8] is: endpoint: mean survival time, dose: 100.0 mg/kg/injection, schedule: Q04DX003 (ip), vehicle: saline.
Where [9] appears, read: endpoint: mean survival time, dose: 200.0 mg/kg/injection, schedule: Q04DX003 (ip), vehicle: saline.
The mark [10] stands for this setting: endpoint: mean survival time, dose: 400.0 mg/kg/injection, schedule: Q04DX003 (ip), vehicle: saline.
The mark [11] stands for this setting: endpoint: mean survival time, dose: 400.0 mg/kg/injection, schedule: Q01DX001 (ip), vehicle: saline with Tween-80.
[12] abbreviates: endpoint: mean survival time, dose: 100.0 mg/kg/injection, schedule: Q04DX003 (ip), vehicle: Klucel (hydroxypropylcellulose) (HPC).
[13] abbreviates: endpoint: mean survival time, dose: 200.0 mg/kg/injection, schedule: Q04DX003 (ip), vehicle: Klucel (hydroxypropylcellulose) (HPC).
Setting [14] is: endpoint: mean survival time, dose: 400.0 mg/kg/injection, schedule: Q04DX003 (ip), vehicle: Klucel (hydroxypropylcellulose) (HPC).

With `CC(=O)CC1CC2(CCC1=O)OCCO2` (stereo not given), the T/C under setting [1] was 102 % of control; the T/C under setting [2] is 98 % of control; the T/C under setting [3] is 96 % of control; the T/C under setting [4] was 93 % of control; the T/C under setting [5] was 100 % of control; the T/C (endpoint: mean survival time, dose: 400.0 mg/kg/injection, schedule: Q04DX003 (ip), vehicle: saline with Tween-80) was 102 % of control.
As for `N#Cc1cccnc1.NCCNCCN.[Br-].[Pt+4]`, the T/C is, setting by setting: (endpoint: mean survival time, dose: 12.5 mg/kg/injection, schedule: Q01DX009 (ip), vehicle: saline) 95 % of control; (endpoint: mean survival time, dose: 25.0 mg/kg/injection, schedule: Q01DX009 (ip), vehicle: saline) 103 % of control; (endpoint: mean survival time, dose: 50.0 mg/kg/injection, schedule: Q01DX009 (ip), vehicle: saline) 101 % of control; (endpoint: mean survival time, dose: 100.0 mg/kg/injection, schedule: Q01DX009 (ip), vehicle: saline) 98 % of control; (endpoint: mean survival time, dose: 200.0 mg/kg/injection, schedule: Q01DX009 (ip), vehicle: saline) 98 % of control.
Turning to `N/C(Cc1ccc(N)cc1)=N\O`, the T/C under setting [2] is 110 % of control.
Regarding `O=C(c1ccccc1[N+](=O)[O-])C(Br)C(Br)c1ccc(Cl)c(Cl)c1` (stereo not given), the T/C (endpoint: mean survival time, dose: 25.0 mg/kg/injection, schedule: Q01DX009 (ip), vehicle: saline with Tween-80) was 87 % of control and 94 % of control; the T/C (endpoint: mean survival time, dose: 50.0 mg/kg/injection, schedule: Q01DX009 (ip), vehicle: saline with Tween-80) is 100 % of control; the T/C (endpoint: mean survival time, dose: 50.0 mg/kg/injection, schedule: Q04DX003 (ip), vehicle: saline with Tween-80) was 90 % of control; the T/C under setting [6] is 107 % of control; the T/C (endpoint: mean survival time, dose: 100.0 mg/kg/injection, schedule: Q04DX002 (ip), vehicle: saline with Tween-80) was 89 % of control and 100 % of control; the T/C under setting [2] is 87 % of control. Moreover, the T/C reads like this: under setting [7], 95 % of control; (endpoint: mean survival time, dose: 200.0 mg/kg/injection, schedule: Q04DX002 (ip), vehicle: saline with Tween-80) 86 % of control and 96 % of control; under setting [4], 90 % of control; (endpoint: mean survival time, dose: 400.0 mg/kg/injection, schedule: Q04DX002 (ip), vehicle: saline with Tween-80) 86 % of control and 90 % of control.
For `O=C1c2ccccc2C(=O)c2c(NCCN3CCNCC3)ccc(NCCN3CCNCC3)c21`, the T/C (endpoint: mean survival time, dose: 4.0 mg/kg/injection, schedule: Q01DX009 (ip), vehicle: acid diluted with saline) was 100 % of control; the T/C (endpoint: mean survival time, dose: 8.0 mg/kg/injection, schedule: Q01DX009 (ip), vehicle: acid diluted with saline) was 102 % of control; the T/C (endpoint: mean survival time, dose: 16.0 mg/kg/injection, schedule: Q01DX009 (ip), vehicle: acid diluted with saline) was 106 % of control; the T/C (endpoint: mean survival time, dose: 32.0 mg/kg/injection, schedule: Q01DX009 (ip), vehicle: acid diluted with saline) is 104 % of control.
As for `O=C(CCN1CC1)Nc1ccc(NC(=O)CCN2CC2)cc1`, the T/C is, setting by setting: (endpoint: mean survival time, dose: 5.0 mg/kg/injection, schedule: Q04DX003 (ip), vehicle: Klucel (hydroxypropylcellulose) (HPC)) 106 % of control; (endpoint: mean survival time, dose: 80.0 mg/kg/injection, schedule: Q04DX003 (ip), vehicle: Klucel (hydroxypropylcellulose) (HPC)) 115 % of control.
With `[Cl][Pt+2][Cl].[NH-]CC1CCCC[N-]1` (stereo not given), the T/C was 121 % of control (endpoint: mean survival time, dose: 6.25 mg/kg/injection, schedule: Q04DX003 (ip), vehicle: distilled water + Tween-80); 115 % of control (endpoint: mean survival time, dose: 12.5 mg/kg/injection, schedule: Q04DX003 (ip), vehicle: distilled water + Tween-80); 150 % of control (endpoint: mean survival time, dose: 25.0 mg/kg/injection, schedule: Q04DX003 (ip), vehicle: distilled water + Tween-80); 123 % of control (endpoint: mean survival time, dose: 50.0 mg/kg/injection, schedule: Q04DX003 (ip), vehicle: distilled water + Tween-80); 91 % of control (endpoint: mean survival time, dose: 200.0 mg/kg/injection, schedule: Q04DX003 (ip), vehicle: distilled water + Tween-80); 168 % of control (endpoint: median survival time, dose: 12.5 mg/kg/injection, schedule: Q04DX002 (ip), vehicle: saline). Besides, the T/C (endpoint: median survival time, dose: 25.0 mg/kg/injection, schedule: Q04DX002 (ip), vehicle: saline) is 158 % of control.
Turning to `CCN(CC)CCCC(C)(NCc1ccccc1)[P+](=O)O` (stereo not given), the T/C under setting [1] is 90 % of control; the T/C under setting [8] was 96 % of control; the T/C under setting [3] was 86 % of control; the T/C under setting [9] is 91 % of control; the T/C under setting [5] is 94 % of control; the T/C under setting [10] was 94 % of control.
Consider `CCCCCC(=O)N1CCCCCC1`, for which the T/C is 96 % of control under setting [8], 98 % of control under setting [9] and 98 % of control under setting [10].
For the molecule `COC(=O)C(Cl)C(Cl)c1ccccc1` (stereo not given), the T/C is 100 % of control under setting [1], 105 % of control under setting [3] and 101 % of control under setting [5].
As for `C#CC1(OC(=O)Nc2ccc3c(c2)OCO3)CCCCC1`, the T/C reads like this: under setting [6], 92 % of control; under setting [7], 86 % of control; under setting [11], 95 % of control.
Take `c1ccc(C2CC2c2ccccc2)cc1` (stereo not given): the T/C (endpoint: mean survival time, dose: 75.0 mg/kg/injection, schedule: Q01DX001 (ip), vehicle: saline) was 100 % of control; the T/C (endpoint: mean survival time, dose: 150.0 mg/kg/injection, schedule: Q01DX001 (ip), vehicle: saline) is 96 % of control; the T/C (endpoint: mean survival time, dose: 300.0 mg/kg/injection, schedule: Q01DX001 (ip), vehicle: saline) is 98 % of control.
Turning to `COC1OC(COC(c2ccccc2)(c2ccccc2)c2ccccc2)C(OC(C)=O)C1OC(C)=O` (stereo not given), the T/C under setting [12] is 109 % of control, the T/C under setting [13] is 89 % of control and the T/C under setting [14] was 89 % of control.
As to `Clc1ccc(N=Cc2ccc3c(c2)OCO3)c(Cl)c1`, the T/C was 100 % of control (endpoint: mean survival time, dose: 100.0 mg/kg/injection, schedule: Q01DX001 (ip), vehicle: Klucel (hydroxypropylcellulose) (HPC)); 96 % of control (endpoint: mean survival time, dose: 200.0 mg/kg/injection, schedule: Q01DX001 (ip), vehicle: Klucel (hydroxypropylcellulose) (HPC)); 97 % of control (endpoint: mean survival time, dose: 400.0 mg/kg/injection, schedule: Q01DX001 (ip), vehicle: Klucel (hydroxypropylcellulose) (HPC)).
For `CCN(CC)C1=C(c2ccccc2)C(=O)C(=O)C1c1ccccc1` (stereo not given), the T/C is, setting by setting: under setting [6], 103 % of control; under setting [7], 107 % of control; under setting [11], 94 % of control.
For `O=[N+]([O-])c1ccc(N/N=C/c2cccc(CO)c2)c([N+](=O)[O-])c1`, the T/C reads like this: under setting [8], 94 % of control; under setting [9], 88 % of control; under setting [10], 96 % of control.
For `O=C(NC(=O)c1ccccc1)NC1=C(Cl)C(=O)c2ccccc2C1=O`, the T/C (endpoint: mean survival time, dose: 100.0 mg/kg/injection, schedule: Q01DX001 (ip), vehicle: other) was 106 % of control; the T/C (endpoint: mean survival time, dose: 200.0 mg/kg/injection, schedule: Q01DX001 (ip), vehicle: other) is 104 % of control; the T/C (endpoint: mean survival time, dose: 400.0 mg/kg/injection, schedule: Q01DX001 (ip), vehicle: other) was 109 % of control.
For `O=C1OC2(c3ccc(Cl)cc3Oc3cc(Cl)ccc32)c2ccccc21`, the T/C is 101 % of control (endpoint: mean survival time, dose: 100.0 mg/kg/injection, schedule: Q04DX002 (ip), vehicle: Klucel (hydroxypropylcellulose) (HPC)); 97 % of control (endpoint: mean survival time, dose: 200.0 mg/kg/injection, schedule: Q04DX002 (ip), vehicle: Klucel (hydroxypropylcellulose) (HPC)); 89 % of control (endpoint: mean survival time, dose: 400.0 mg/kg/injection, schedule: Q04DX002 (ip), vehicle: Klucel (hydroxypropylcellulose) (HPC)).
Consider `CC(=O)N(C(C)=O)c1ccc2[nH]c3c(N(C(C)=O)C(C)=O)cccc3c2c1`, for which the T/C under setting [12] was 97 % of control, the T/C under setting [13] was 96 % of control and the T/C under setting [14] is 97 % of control.
On to `O=c1c(O)c(O)c1=O.[NH2-].[NH2-].[NH2-].[NH2-].[NH2-].[Ru+5]`, for which the T/C is, setting by setting: (endpoint: median survival time, dose: 3.12 mg/kg/injection, schedule: Q01DX005 (ip), vehicle: saline) 119 % of control; (endpoint: median survival time, dose: 3.12 mg/kg/injection, schedule: Q01DX005 (ip), vehicle: suspension in saline) 114 % of control; (endpoint: median survival time, dose: 6.25 mg/kg/injection, schedule: Q01DX005 (ip), vehicle: saline) 122 % of control; (endpoint: median survival time, dose: 6.25 mg/kg/injection, schedule: Q01DX005 (ip), vehicle: suspension in saline) 114 % of control; (endpoint: median survival time, dose: 12.5 mg/kg/injection, schedule: Q01DX005 (ip), vehicle: suspension in saline) 109 % of control; (endpoint: median survival time, dose: 25.0 mg/kg/injection, schedule: Q01DX005 (ip), vehicle: saline) 116 % of control.
